According to the SangsterLogP compilation:

| Structure (SMILES) | logP |
| --- | --- |
| Cc1cc(Cl)ccc1OCC(=O)O | 2.69 |
| CCC(C)n1c(=O)[nH]c(C)c(Br)c1=O (centres undefined) | 1.33 |
| Cc1[nH]c(=O)n(C(C)(C)C)c(=O)c1Cl | 1.44 |
| CCCN(CCC)c1c([N+](=O)[O-])cc(S(C)(=O)=O)cc1[N+](=O)[O-] | 4.78 |
| O=C(O)c1c(Cl)ccc(Cl)c1Cl | 4.34 |
| ClC1=C(Cl)[C@]2(Cl)C3C(Cl)C(Cl)CC3[C@@]1(Cl)C2(Cl)Cl (some centres undefined) | 5.89 |
| CCCN(CC1CC1)c1c([N+](=O)[O-])cc(C(F)(F)F)cc1[N+](=O)[O-] | 5.16 |
| CC(Cl)(Cl)C(=O)O | 1.34 |
| COC(=O)C=C(C)OP(=O)(OC)OC | 0.55 |
| CC(C)OC(=O)Nc1cccc(Cl)c1 | 3.42 |
| CCC(C)Nc1c([N+](=O)[O-])cc(C(C)(C)C)cc1[N+](=O)[O-] (centres undefined) | 4.54 |
| Nc1cc(Cl)cc(C(=O)O)c1Cl | 1.46 |
| CN(C)C(=O)C(c1ccccc1)c1ccccc1 | 2.17 |
| CC(C)Nc1nc(Cl)nc(NC(C)C)n1 | 3.09 |
